Key:
CDK9/CycT1 = molecular target: T1, CDK9/CycT1 (Homo sapiens, UniProt P50750); assay: CDK9/CycT1 high ATP kinase assay (Method 1b, TR-FRET); format: biochemical; settings: 2 mM ATP; for Selectivity high ATP CDK9 over high ATP CDK2: IC50 (high ATP CDK2)/IC50 (high ATP CDK9): Methods 1b. and 2b.
T1 construct: Recombinant full-length His-tagged human CDK9 and CycT1; His; purchased Invitrogen PV4131; host or cells: insect cells
Procedure: 1b. CDK9/CycT1 High ATP Kinase Assay
CDK9/CycT1-Inhibitory Activity of Compounds of the Present Invention at a High ATP Concentration after Preincubation of Enzyme and Test Compounds was Quantified Employing the CDK9/CycT1 TR-FRET Assay as Described in the Following Paragraphs.
Recombinant full-length His-tagged human CDK9 and CycT1, expressed in insect cells and purified by Ni-NTA affinity chromatography, were purchase from Invitrogen (Cat. No PV4131). As substrate for the kinase reaction biotinylated peptide biotin-Ttds-YISPLKSPYKISEG (C-terminus in amid form) was used which can be purchased e.g. form the company JERINI peptide technologies (Berlin, Germany). For the assay 50 nl of a 100 fold concentrated solution of the test compound in DMSO was pipetted into a black low volume 384 well microtiter plate (Greiner Bio-One, Frickenhausen, Germany), 2 μl of a solution of CDK9/CycT1 in aqueous assay buffer [50 mM Tris/HCl pH 8.0, 10 mM MgCl2, 1.0 mM dithiothreitol, 0.1 mM sodium ortho-vanadate, 0.01% (v/v) Nonidet-P40 (Sigma)] were added and the mixture was incubated for 15 min at 22° C. to allow pre-binding of the test compounds to the enzyme before the start of the kinase reaction. Then the kinase reaction was started by the addition of 3 μl of a solution of adenosine-tri-phosphate (ATP, 3.3 mM=>final conc. in the 5 μl assay volume is 2 mM) and substrate (1.67 μM=>final conc. in the 5 μl assay volume is 1 μM) in assay buffer and the resulting mixture was incubated for a reaction time of 25 min at 22° C. The concentration of CDK9/CycT1 was adjusted depending of the activity of the enzyme lot and was chosen appropriate to have the assay in the linear range, typical concentrations were in the range of 0.5 μg/mL. The reaction was stopped by the addition of 5 μl of a solution of TR-FRET detection reagents (0.2 μM streptavidine-XL665 [Cisbio Bioassays, Codolet, France] and 1 nM anti-RB(pSer807/pSer811)-antibody from BD Pharmingen [#558389] and 1.2 nM LANCE EU-W1024 labeled anti-mouse IgG antibody [Perkin-Elmer, product no. AD0077]) in an aqueous EDTA-solution (100 mM EDTA, 0.2% (w/v) bovine serum albumin in 100 mM HEPES/NaOH pH 7.0).
The resulting mixture was incubated 1 h at 22° C. to allow the formation of complex between the phosphorylated biotinylated peptide and the detection reagents. Subsequently the amount of phosphorylated substrate was evaluated by measurement of the resonance energy transfer from the Eu-chelate to the streptavidine-XL. Therefore, the fluorescence emissions at 620 nm and 665 nm after excitation at 350 nm was measured in a HTRF reader, e.g. a Rubystar (BMG Labtechnologies, Offenburg, Germany) or a Viewlux (Perkin-Elmer). The ratio of the emissions at 665 nm and at […] was taken as the measure for the amount of phosphorylated substrate. The data were normalised (enzyme reaction without inhibitor=0% inhibition, all other assay components but no enzyme=100% inhibition).

[1] = Caco-2 permeation assay (Method 4); format: in vitro ADME; settings: human, 2 μM test compound; for efflux ratio at 2 h, 2 μM: Caco-2, pH 7.2, read-out: Efflux ratio (Papp B-A/Papp A-B); for Papp A→B at 2 h, 2 μM / Papp B→A at 2 h, 2 μM: Caco-2, 2 h incubation, pH 7.2; for Papp A→B at 2 h, 2 μM: read-out: Papp A-B (Mari); for Papp B→A at 2 h, 2 μM: read-out: Papp B-A (Mari)
Procedure: 4. Caco-2 Permeation Assay:
Caco-2 cells (purchased from DSMZ Braunschweig, Germany) were seeded at a density of 4.5×10^4 cells per well on 24 well insert plates, 0.4 μm pore size, and grown for 15 days in DMEM medium supplemented with 10% fetal bovine serum, 1% GlutaMAX (100×, GIBCO), 100 U/mL penicillin, 100 μg/mL streptomycin (GIBCO) and 1% non essential amino acids (100×). Cells were maintained at 37° C. in a humified 5% CO2 atmosphere. Medium was changed every 2-3 day. Before running the permeation assay, the culture medium was replaced by a FCS-free hepes-carbonate transport buffer (pH 7.2). For assessment of monolayer integrity the transepithelial electrical resistance (TEER) was measured. Test compounds were predissolved in DMSO and added either to the apical or basolateral compartment in final concentration of 2 μM in transport buffer. Before and after 2 h incubation at 37° C. samples were taken from both compartments. Analysis of compound content was done after precipitation with methanol by LC/MS/MS analysis. Permeability (Papp) was calculated in the apical to basolateral (A→B) and basolateral to apical (B→A) directions. The apparent permeability was calculated using following equation: Papp=(Vr/Po)(1/S)(P2/t)
Where Vr is the volume of medium in the receiver chamber, Po is the measured peak area or height of the test drug in the donor chamber at t=o, S the surface area of the monolayer, P2 is the measured peak area of the test drug in the acceptor chamber after 2 h of incubation, and t is the incubation time. The efflux ratio basolateral (B) to apical (A) was calculated by dividing the Papp B-A by the Papp A-B. In addition the compound recovery was calculated.

T1 sequence (P50750 whole entry): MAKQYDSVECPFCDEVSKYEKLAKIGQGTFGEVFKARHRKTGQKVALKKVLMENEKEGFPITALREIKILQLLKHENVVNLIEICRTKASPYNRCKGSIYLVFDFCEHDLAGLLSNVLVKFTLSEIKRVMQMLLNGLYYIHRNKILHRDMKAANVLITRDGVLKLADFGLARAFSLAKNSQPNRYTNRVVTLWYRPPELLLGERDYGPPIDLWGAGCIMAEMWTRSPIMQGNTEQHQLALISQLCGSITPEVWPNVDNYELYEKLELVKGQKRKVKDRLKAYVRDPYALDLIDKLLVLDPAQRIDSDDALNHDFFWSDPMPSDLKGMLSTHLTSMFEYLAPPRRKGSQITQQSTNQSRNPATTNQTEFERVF
T1 sequence (O60563 whole entry partner): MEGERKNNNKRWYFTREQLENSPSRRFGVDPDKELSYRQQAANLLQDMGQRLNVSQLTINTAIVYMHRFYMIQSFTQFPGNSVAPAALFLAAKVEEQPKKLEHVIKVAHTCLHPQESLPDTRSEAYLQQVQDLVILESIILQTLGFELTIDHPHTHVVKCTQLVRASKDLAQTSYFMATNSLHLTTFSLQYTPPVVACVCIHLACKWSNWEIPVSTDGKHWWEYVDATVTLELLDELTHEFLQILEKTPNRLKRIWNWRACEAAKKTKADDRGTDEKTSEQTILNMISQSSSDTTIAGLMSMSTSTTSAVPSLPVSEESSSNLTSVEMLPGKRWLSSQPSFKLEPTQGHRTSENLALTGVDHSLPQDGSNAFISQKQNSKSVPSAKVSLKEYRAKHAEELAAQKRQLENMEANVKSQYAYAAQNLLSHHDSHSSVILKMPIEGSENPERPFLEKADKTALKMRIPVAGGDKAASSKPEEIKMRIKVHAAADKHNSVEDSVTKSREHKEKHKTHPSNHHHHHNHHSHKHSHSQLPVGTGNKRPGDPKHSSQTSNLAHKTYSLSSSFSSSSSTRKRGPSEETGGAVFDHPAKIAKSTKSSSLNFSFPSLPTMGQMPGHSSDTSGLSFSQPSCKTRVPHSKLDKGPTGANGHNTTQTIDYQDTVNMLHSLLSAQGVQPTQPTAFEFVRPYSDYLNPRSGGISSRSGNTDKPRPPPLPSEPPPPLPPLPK

| SMILES | IC50 (CDK9/CycT1) | Selectivity high ATP CDK9 over high ATP CDK2: IC50 (high ATP CDK2)/IC50 (high ATP CDK9) (CDK9/CycT1) | efflux ratio at 2 h, 2 μM [1] | Papp A→B at 2 h, 2 μM [1] | Papp B→A at 2 h, 2 μM [1] |
| --- | --- | --- | --- | --- | --- |
| CS(=N)(=O)Cc1cccc(Nc2ncc(F)c(-c3ccc(F)c4ccoc34)n2)c1 (racemic) [Example 4, (rac)-5-Fluoro-4-(4-fluoro-1-benzofuran-7-yl)-N-{3-[(S-methylsulfonimidoyl)-methyl]phenyl}-pyrimidin-2-amine] | 22 nM | 23 | 0.57 | 18.3 ×10⁻⁶ cm/s | 10.4 ×10⁻⁶ cm/s |
| CS(=N)(=O)Cc1cccc(Nc2ncc(F)c(-c3ccc(F)c4ccoc34)n2)c1 (single isomer, unassigned) [Example 6, 5-Fluoro-4-(4-fluoro-1-benzofuran-7-yl)-N-{3-[(S-methylsulfonimidoyl)-methyl]-phenyl}-pyrimidin-2-amine] | 3.2 nM | 313 | 0.51 | 22.1 ×10⁻⁶ cm/s | 11.3 ×10⁻⁶ cm/s |

— patent US9884849B2, “Fluorinated benzofuranyl-pyrimidine derivatives containing a sulfoximine group” (Bayer Pharma Aktiengesellschaft, priority 2014, dated 2018)
